Tests used:
[1] = biological target: Insulin receptor (Homo sapiens) (UniProt P06213); conditions: Compound concentration 1000.0 nM
[2] = biological target: 5'-AMP-activated protein kinase catalytic subunit alpha-2 (Homo sapiens) (UniProt P54646); conditions: Compound concentration 1000.0 nM
[3] = biological target: Myosin light chain kinase (Homo sapiens) (UniProt Q32MK0); conditions: Compound concentration 1000.0 nM
[4] = biological target: Serine/threonine-protein kinase PAK 6 (Homo sapiens) (UniProt Q9NQU5); conditions: Compound concentration 1000.0 nM
Sequence of Serine/threonine-protein kinase PAK 6 (Homo sapiens) (Q9NQU5 whole entry, looked up): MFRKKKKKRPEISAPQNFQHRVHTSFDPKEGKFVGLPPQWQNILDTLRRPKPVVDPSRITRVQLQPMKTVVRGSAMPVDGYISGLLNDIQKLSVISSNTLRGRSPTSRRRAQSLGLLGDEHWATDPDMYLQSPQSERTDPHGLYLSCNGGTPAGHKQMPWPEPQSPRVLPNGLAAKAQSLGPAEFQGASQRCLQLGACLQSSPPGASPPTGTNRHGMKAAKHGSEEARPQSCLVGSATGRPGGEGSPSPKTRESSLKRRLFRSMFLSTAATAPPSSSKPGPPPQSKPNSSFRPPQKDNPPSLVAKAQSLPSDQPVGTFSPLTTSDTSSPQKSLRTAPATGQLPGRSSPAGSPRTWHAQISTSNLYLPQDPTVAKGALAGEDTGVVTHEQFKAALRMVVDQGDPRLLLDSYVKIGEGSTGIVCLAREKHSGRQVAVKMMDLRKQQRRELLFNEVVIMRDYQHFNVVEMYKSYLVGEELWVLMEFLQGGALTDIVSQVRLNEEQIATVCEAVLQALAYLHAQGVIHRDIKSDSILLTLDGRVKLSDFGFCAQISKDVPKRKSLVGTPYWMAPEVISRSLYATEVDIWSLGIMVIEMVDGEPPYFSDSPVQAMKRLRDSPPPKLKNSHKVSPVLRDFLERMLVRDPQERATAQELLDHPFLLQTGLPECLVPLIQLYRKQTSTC

[5] = biological target: Dual serine/threonine and tyrosine protein kinase (Homo sapiens) (UniProt Q6XUX3); conditions: Compound concentration 1000.0 nM
[6] = biological target: Calcium/calmodulin-dependent protein kinase kinase 1 (Homo sapiens) (UniProt Q8N5S9); conditions: Compound concentration 1000.0 nM
[7] = biological target: Serine/threonine-protein kinase RIO2 (Homo sapiens) (UniProt Q9BVS4); conditions: Compound concentration 1000.0 nM
[8] = tested on: Phosphatidylinositol 4,5-bisphosphate 3-kinase catalytic subunit alpha isoform (Homo sapiens), P42336 [E542K]; conditions: Compound concentration 1000.0 nM
Sequence of Phosphatidylinositol 4,5-bisphosphate 3-kinase catalytic subunit alpha isoform (Homo sapiens), P42336 [E542K] (P42336 whole entry E542K, canonical isoform): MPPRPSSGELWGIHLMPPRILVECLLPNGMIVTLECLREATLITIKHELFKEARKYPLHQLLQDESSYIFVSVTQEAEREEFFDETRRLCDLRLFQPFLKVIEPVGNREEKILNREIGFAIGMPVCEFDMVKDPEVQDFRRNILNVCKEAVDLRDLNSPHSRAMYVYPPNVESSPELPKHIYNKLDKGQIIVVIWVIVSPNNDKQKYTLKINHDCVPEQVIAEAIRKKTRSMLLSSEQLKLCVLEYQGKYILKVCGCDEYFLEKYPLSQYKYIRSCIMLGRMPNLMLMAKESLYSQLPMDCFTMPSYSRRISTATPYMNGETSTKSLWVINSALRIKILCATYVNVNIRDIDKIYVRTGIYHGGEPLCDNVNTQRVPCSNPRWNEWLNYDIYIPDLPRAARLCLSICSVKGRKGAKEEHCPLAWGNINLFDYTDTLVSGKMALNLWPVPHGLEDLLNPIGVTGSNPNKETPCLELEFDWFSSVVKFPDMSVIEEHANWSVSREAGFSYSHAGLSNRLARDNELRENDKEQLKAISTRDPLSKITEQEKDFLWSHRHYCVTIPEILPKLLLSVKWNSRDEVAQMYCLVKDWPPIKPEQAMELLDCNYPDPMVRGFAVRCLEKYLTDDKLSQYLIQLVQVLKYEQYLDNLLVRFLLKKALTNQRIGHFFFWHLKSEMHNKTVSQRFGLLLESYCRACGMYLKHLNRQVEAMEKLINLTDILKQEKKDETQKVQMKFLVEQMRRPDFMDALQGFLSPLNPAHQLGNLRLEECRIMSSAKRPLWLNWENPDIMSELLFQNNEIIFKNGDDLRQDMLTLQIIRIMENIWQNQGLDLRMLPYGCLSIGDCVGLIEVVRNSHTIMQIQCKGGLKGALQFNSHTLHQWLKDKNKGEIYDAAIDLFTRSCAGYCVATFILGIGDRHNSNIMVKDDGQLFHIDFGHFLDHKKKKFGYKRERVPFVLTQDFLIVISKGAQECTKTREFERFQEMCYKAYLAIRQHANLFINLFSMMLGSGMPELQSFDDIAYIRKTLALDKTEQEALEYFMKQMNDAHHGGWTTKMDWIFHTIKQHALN

[9] = biological target: Dual specificity mitogen-activated protein kinase kinase 6 (Homo sapiens) (UniProt P52564); conditions: Compound concentration 1000.0 nM
[10] = biological target: RAF proto-oncogene serine/threonine-protein kinase (Homo sapiens) (UniProt P04049); conditions: Compound concentration 1000.0 nM
[11] = biological target: Ribosomal protein S6 kinase alpha-5 (Homo sapiens) (UniProt O75582); conditions: Compound concentration 1000.0 nM
[12] = biological target: Mitogen-activated protein kinase 9 (Homo sapiens) (UniProt P45984); conditions: Compound concentration 1000.0 nM
[13] = biological target: Aurora kinase B (Homo sapiens) (UniProt Q96GD4); conditions: Compound concentration 1000.0 nM
Sequence of Aurora kinase B (Homo sapiens) (Q96GD4 whole entry): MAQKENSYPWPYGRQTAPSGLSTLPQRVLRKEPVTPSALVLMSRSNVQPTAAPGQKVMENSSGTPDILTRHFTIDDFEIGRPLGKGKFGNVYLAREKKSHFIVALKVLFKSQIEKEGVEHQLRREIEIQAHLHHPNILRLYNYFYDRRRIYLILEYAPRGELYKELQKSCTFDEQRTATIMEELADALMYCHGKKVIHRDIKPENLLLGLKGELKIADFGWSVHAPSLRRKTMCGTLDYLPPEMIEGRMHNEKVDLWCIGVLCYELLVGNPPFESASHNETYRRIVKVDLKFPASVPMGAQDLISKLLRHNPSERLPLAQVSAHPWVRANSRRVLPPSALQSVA

[14] = biological target: Serine/threonine-protein kinase LATS2 (Homo sapiens) (UniProt Q9NRM7); conditions: Compound concentration 1000.0 nM
Sequence of Serine/threonine-protein kinase LATS2 (Homo sapiens) (Q9NRM7 whole entry): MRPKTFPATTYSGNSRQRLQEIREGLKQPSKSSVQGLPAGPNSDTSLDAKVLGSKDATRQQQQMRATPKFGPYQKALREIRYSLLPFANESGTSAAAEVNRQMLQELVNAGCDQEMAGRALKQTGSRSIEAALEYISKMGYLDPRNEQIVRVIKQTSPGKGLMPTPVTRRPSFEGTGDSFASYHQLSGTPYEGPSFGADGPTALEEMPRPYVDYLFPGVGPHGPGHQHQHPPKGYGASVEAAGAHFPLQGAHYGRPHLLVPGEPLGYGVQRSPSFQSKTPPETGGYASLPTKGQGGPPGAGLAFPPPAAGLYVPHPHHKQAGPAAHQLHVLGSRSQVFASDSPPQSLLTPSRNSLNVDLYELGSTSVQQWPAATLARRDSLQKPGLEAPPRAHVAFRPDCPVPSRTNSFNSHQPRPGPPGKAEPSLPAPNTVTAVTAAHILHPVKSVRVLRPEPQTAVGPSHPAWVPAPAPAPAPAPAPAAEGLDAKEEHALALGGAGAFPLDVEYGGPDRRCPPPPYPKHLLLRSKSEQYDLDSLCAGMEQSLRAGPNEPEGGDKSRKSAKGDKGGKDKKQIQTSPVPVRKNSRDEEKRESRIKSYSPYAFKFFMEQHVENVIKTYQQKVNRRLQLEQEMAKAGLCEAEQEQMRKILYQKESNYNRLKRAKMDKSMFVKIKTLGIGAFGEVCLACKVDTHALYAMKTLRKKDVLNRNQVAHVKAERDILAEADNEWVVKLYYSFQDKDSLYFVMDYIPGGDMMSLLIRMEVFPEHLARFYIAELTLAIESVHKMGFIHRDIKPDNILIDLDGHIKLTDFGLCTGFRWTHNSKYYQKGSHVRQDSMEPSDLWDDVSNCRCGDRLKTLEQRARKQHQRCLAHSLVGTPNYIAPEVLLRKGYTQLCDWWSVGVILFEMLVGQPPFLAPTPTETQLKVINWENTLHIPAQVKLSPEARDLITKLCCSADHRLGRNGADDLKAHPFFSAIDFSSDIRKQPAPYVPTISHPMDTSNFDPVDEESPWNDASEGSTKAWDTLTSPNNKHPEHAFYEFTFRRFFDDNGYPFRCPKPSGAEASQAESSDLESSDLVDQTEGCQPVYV

[15] = biological target: Focal adhesion kinase 1 (Homo sapiens) (UniProt Q05397); conditions: Compound concentration 1000.0 nM
[16] = biological target: Mitogen-activated protein kinase kinase kinase 6 (Homo sapiens) (UniProt O95382); conditions: Compound concentration 1000.0 nM
[17] = biological target: Serine/threonine-protein kinase N2 (Homo sapiens) (UniProt Q16513); conditions: Compound concentration 1000.0 nM
Sequence of Serine/threonine-protein kinase N2 (Homo sapiens) (Q16513 whole entry, looked up): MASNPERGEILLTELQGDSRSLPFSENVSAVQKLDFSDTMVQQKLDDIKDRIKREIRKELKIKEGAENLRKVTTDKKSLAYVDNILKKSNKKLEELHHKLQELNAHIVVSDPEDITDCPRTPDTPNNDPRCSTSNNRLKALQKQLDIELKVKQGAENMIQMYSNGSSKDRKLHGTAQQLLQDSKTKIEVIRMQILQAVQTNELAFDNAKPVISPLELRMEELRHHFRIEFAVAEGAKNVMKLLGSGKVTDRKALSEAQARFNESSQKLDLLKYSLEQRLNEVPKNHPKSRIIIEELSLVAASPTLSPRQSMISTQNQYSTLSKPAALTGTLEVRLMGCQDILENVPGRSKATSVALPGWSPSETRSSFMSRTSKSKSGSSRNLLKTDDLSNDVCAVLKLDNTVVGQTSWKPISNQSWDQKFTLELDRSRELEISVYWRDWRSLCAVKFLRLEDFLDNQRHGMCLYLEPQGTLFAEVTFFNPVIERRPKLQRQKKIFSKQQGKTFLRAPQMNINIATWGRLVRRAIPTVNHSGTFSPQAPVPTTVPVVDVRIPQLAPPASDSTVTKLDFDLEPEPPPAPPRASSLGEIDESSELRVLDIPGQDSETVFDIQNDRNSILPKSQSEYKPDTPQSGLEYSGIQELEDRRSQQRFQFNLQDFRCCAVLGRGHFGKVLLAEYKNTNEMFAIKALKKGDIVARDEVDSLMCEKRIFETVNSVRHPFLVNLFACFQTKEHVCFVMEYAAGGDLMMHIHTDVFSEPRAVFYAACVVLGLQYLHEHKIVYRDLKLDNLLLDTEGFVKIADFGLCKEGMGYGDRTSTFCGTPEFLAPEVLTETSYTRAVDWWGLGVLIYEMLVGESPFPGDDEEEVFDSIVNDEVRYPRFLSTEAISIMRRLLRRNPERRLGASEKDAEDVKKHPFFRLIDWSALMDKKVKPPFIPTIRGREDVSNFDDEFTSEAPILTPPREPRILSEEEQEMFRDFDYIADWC

[18] = biological target: 5-hydroxytryptamine receptor 3A (Homo sapiens) (UniProt P46098); conditions: Compound concentration 10.0 uM
[19] = biological target: Bone morphogenetic protein receptor type-1B (Homo sapiens) (UniProt O00238); conditions: Compound concentration 1000.0 nM
[20] = biological target: Homeodomain-interacting protein kinase 1 (Homo sapiens) (UniProt Q86Z02); conditions: Compound concentration 1000.0 nM
[21] = biological target: TGF-beta receptor type-2 (Homo sapiens) (UniProt P37173); conditions: Compound concentration 1000.0 nM
[22] = biological target: Platelet-derived growth factor receptor alpha (Homo sapiens) (UniProt P16234); conditions: Compound concentration 1000.0 nM
[23] = biological target: Serine/threonine-protein kinase Nek9 (Homo sapiens) (UniProt Q8TD19); conditions: Compound concentration 1000.0 nM
[24] = tested on: Hepatocyte growth factor receptor (Homo sapiens), P08581 [M1250T]; conditions: Compound concentration 1000.0 nM
[25] = biological target: Cyclin-dependent kinase-like 2 (Homo sapiens) (UniProt Q92772); conditions: Compound concentration 1000.0 nM
Sequence of Cyclin-dependent kinase-like 2 (Homo sapiens) (Q92772 whole entry): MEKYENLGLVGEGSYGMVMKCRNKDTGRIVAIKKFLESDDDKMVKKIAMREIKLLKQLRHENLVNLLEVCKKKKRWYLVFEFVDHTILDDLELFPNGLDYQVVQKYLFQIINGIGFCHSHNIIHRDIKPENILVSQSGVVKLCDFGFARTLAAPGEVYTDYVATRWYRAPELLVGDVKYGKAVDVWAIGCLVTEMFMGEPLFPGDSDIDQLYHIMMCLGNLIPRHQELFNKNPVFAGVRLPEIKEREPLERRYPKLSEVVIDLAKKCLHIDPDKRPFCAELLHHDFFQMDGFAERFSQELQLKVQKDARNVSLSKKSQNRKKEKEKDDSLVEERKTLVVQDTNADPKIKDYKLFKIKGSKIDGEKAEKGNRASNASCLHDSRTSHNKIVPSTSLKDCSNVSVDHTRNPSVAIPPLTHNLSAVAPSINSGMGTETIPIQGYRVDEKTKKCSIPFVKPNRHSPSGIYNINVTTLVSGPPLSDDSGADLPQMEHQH

[26] = biological target: Calcium/calmodulin-dependent protein kinase type II subunit gamma (Homo sapiens) (UniProt Q13555); conditions: Compound concentration 1000.0 nM
[27] = biological target: Serine/threonine-protein kinase/endoribonuclease IRE1 (Homo sapiens) (UniProt O75460); conditions: Compound concentration 1000.0 nM
[28] = biological target: Histamine H2 receptor (Homo sapiens) (UniProt P25021); conditions: Compound concentration 10.0 uM
[29] = biological target: Serine/threonine-protein kinase RIO1 (Homo sapiens) (UniProt Q9BRS2); conditions: Compound concentration 1000.0 nM
[30] = biological target: Ephrin type-B receptor 4 (Homo sapiens) (UniProt P54760); conditions: Compound concentration 1000.0 nM
[31] = biological target: SRSF protein kinase 3 (Homo sapiens) (UniProt Q9UPE1); conditions: Compound concentration 1000.0 nM
[32] = biological target: Non-receptor tyrosine-protein kinase TNK1 (Homo sapiens) (UniProt Q13470); conditions: Compound concentration 1000.0 nM
[33] = biological target: Serine/threonine-protein kinase PAK 3 (Homo sapiens) (UniProt O75914); conditions: Compound concentration 1000.0 nM
[34] = biological target: Receptor-interacting serine/threonine-protein kinase 1 (Homo sapiens) (UniProt Q13546); conditions: Compound concentration 1000.0 nM
[35] = biological target: Cyclin-dependent kinase 19 (Homo sapiens) (UniProt Q9BWU1); conditions: Compound concentration 1000.0 nM
[36] = biological target: Mitogen-activated protein kinase kinase kinase 9 (Homo sapiens) (UniProt P80192); conditions: Compound concentration 1000.0 nM
[37] = biological target: Mitogen-activated protein kinase kinase kinase kinase 2 (Homo sapiens) (UniProt Q12851); conditions: Compound concentration 1000.0 nM
[38] = biological target: Vascular endothelial growth factor receptor 3 (Homo sapiens) (UniProt P35916); conditions: Compound concentration 1000.0 nM
[39] = biological target: D(3) dopamine receptor (Homo sapiens) (UniProt P35462); conditions: Compound concentration 10.0 uM
Sequence of D(3) dopamine receptor (Homo sapiens) (P35462 whole entry): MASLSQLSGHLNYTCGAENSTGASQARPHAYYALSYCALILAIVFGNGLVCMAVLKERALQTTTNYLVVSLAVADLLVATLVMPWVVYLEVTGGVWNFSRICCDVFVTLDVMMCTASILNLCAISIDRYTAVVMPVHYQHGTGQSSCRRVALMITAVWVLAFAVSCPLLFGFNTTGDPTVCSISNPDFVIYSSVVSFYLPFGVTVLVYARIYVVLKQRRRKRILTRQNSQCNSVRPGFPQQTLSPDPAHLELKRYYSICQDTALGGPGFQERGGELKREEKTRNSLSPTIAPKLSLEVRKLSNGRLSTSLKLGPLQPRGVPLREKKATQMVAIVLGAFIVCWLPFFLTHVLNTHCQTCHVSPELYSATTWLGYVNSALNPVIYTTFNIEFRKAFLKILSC

[40] = biological target: cGMP-dependent protein kinase 1 (Homo sapiens) (UniProt Q13976); conditions: Compound concentration 1000.0 nM
[41] = tested on: Epidermal growth factor receptor (Homo sapiens), P00533 [UNDEFINED MUTATION]; conditions: Compound concentration 1000.0 nM
[42] = biological target: Homeodomain-interacting protein kinase 2 (Homo sapiens) (UniProt Q9H2X6); conditions: Compound concentration 1000.0 nM
[43] = biological target: Serine/threonine-protein kinase mTOR (Homo sapiens) (UniProt P42345); conditions: Compound concentration 1000.0 nM
[44] = biological target: Phosphatidylinositol 5-phosphate 4-kinase type-2 beta (Homo sapiens) (UniProt P78356); conditions: Compound concentration 1000.0 nM
[45] = biological target: Myosin-IIIa (Homo sapiens) (UniProt Q8NEV4); conditions: Compound concentration 1000.0 nM

N#Cc1ccc(Nc2ccc3[nH]c(=O)[nH]c3c2)c(Cl)c1
inactive: residual activity [1] 95% | residual activity [2] 81% | residual activity [3] 93% | residual activity [4] 85% | residual activity [5] 75% | residual activity [6] 100% | residual activity [7] 89% | residual activity [8] 70% | residual activity [9] 80% | residual activity [10] 68% | residual activity [11] 100% | residual activity [12] 100% | residual activity [13] 85% | residual activity [14] 95% | residual activity [15] 100% | residual activity [16] 100% | residual activity [17] 76% | inhibition [18] 1.33% | residual activity [19] 100% | residual activity [20] 82% | residual activity [21] 100% | residual activity [22] 100% | residual activity [23] 96% | residual activity [24] 100% | residual activity [25] 100% | residual activity [26] 78% | residual activity [27] 86% | inhibition [28] 2.26% | residual activity [29] 100% | residual activity [30] 98% | residual activity [31] 100% | residual activity [32] 56% | residual activity [33] 100% | residual activity [34] 100% | residual activity [35] 77% | residual activity [36] 100% | residual activity [37] 100% | residual activity [38] 100% | inhibition [39] 3.81% | residual activity [40] 80% | residual activity [41] 100% | residual activity [42] 100% | residual activity [43] 98% | residual activity [44] 74% | residual activity [45] 97%

O=C1CCc2cc(Nc3cc(OC4CCOCC4)c([N+](=O)[O-])cc3Cl)ccc2N1
inactive: residual activity [1] 93% | residual activity [2] 100% | residual activity [3] 100% | residual activity [4] 86% | residual activity [5] 90% | residual activity [6] 100% | residual activity [7] 89% | residual activity [8] 71% | residual activity [9] 69% | residual activity [10] 98% | residual activity [11] 100% | residual activity [12] 86% | residual activity [13] 86% | residual activity [14] 80% | residual activity [15] 100% | residual activity [16] 91% | residual activity [17] 100% | inhibition [18] 4.05% | residual activity [19] 87% | residual activity [20] 95% | residual activity [21] 98% | residual activity [22] 97% | residual activity [23] 80% | residual activity [24] 93% | residual activity [25] 92% | residual activity [26] 100% | residual activity [27] 99% | inhibition [28] 20.6% | residual activity [29] 100% | residual activity [30] 100% | residual activity [31] 100% | residual activity [32] 87% | residual activity [33] 100% | residual activity [34] 100% | residual activity [35] 72% | residual activity [36] 90% | residual activity [37] 95% | residual activity [38] 97% | inhibition [39] 35.4% | residual activity [40] 89% | residual activity [41] 100% | residual activity [42] 100% | residual activity [43] 89% | residual activity [44] 100% | residual activity [45] 99%
